We go through 15 molecules from US11254686B1 (Corvus Pharmaceuticals, Inc., priority 2017, dated 2022).

In test [1] the target is adenosine A1 receptor (Homo sapiens (Human), UniProt P30542). Nature of the test: Adenosine receptor activity assay (Table 1), A1 cAMP. It counts as cell-based.
In test [2] the target is adenosine A2A receptor (Homo sapiens (Human), UniProt P29274). As to the kind of experiment: Adenosine receptor activity assay (Table 1), A2A activity. It counts as biochemical. The settings on record: read-out: Ave A2A cAMP IC50.
adenosine A2A receptor, sequence (P29274 whole entry): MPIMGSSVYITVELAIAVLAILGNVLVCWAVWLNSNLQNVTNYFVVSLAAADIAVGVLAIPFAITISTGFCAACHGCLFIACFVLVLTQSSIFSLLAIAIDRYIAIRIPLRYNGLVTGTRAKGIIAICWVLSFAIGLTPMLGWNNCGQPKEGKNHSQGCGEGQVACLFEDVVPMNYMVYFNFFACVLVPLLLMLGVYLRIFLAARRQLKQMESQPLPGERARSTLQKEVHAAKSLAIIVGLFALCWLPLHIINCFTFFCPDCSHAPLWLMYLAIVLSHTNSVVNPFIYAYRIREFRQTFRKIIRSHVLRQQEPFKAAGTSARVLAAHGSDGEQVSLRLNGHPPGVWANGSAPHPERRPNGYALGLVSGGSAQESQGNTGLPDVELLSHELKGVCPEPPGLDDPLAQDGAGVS
The target in test [3] is adenosine A2B receptor (Homo sapiens (Human), UniProt P29275). Nature of the test: Adenosine receptor activity assay (Table 1), A2B activity. In kind it is biochemical. The settings on record: for Ratio: A2A activity to A2B activity (A2A/A2B); for pIC50: read-out: Ave A2B cAMP IC50.
adenosine A2B receptor, sequence (P29275 whole entry): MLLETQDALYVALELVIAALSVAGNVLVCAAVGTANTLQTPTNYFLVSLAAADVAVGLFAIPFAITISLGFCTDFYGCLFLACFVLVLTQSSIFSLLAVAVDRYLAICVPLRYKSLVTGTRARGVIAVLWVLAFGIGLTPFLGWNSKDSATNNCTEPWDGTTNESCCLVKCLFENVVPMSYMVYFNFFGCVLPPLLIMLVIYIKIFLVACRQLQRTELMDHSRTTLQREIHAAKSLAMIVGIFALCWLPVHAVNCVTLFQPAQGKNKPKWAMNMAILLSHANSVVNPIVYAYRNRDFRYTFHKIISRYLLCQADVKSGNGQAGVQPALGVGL
Test [4] addresses adenosine A3 receptor (Homo sapiens (Human), UniProt P0DMS8). As to the kind of experiment: Adenosine receptor activity assay (Table 1), A3 cAMP. It counts as cell-based.

pIC50: −log10 of the molar value.

adenosine A3 receptor, sequence (P0DMS8 whole entry): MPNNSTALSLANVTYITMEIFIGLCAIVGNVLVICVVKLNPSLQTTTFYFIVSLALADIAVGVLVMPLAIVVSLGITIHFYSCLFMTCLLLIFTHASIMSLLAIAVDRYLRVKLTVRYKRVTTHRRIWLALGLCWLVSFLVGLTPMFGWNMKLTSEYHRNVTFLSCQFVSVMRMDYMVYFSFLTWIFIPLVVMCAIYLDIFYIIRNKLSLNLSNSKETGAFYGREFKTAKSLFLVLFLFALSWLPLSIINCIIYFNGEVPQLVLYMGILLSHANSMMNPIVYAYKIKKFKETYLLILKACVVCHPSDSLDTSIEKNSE
adenosine A1 receptor, sequence (P30542 whole entry): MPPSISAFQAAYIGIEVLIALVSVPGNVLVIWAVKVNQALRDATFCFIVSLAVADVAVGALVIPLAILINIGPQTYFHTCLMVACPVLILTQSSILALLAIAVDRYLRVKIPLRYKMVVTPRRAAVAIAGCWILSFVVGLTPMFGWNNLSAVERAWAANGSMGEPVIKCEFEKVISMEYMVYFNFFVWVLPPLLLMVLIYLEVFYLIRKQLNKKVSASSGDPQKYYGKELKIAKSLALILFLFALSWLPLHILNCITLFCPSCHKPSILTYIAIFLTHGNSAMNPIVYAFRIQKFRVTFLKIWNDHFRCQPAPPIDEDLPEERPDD

Consider `C[C@H](O)CNC(=O)c1nc(N[C@@H](C)c2cccnc2)nc2cc(C(F)(F)F)sc12` [Example Z347, N—((S)-2-Hydroxypropyl)-2-(((S)-1-(pyridin-3-yl)ethyl)amino)-6-(trifluoromethyl)thieno[3,2-d]pyrimidine-4-carboxamide], for which the pIC50 in test [1] is less than 6.30; in test [2] it was less than 6.30; in test [3], 7.30 to 8.00; in test [4] it was 7.00 to 7.30. Also, the Ratio in test [3] was found to be 98.22.
On to `C[C@H](Nc1nc(C(=O)NC[C@@H](C)O)c2sc(C(F)(F)F)cc2n1)c1cccnc1` [Example Z348, N—((R)-2-Hydroxypropyl)-2-(((S)-1-(pyridin-3-yl)ethyl)amino)-6-(trifluoromethyl)thieno[3,2-d]pyrimidine-4-carboxamide], for which the pIC50 in test [1] is less than 6.30; in test [2] it was less than 6.30; in test [3], 7.30 to 8.00; in test [4], 7.00 to 7.30. The Ratio in test [3] was 92.29.
As to `Cc1cc2nc(N[C@@H](C)c3ccccn3)nc(C(=O)NC3CCC3)c2s1` [Example Z352, (S)—N-Cyclobutyl-6-methyl-2-((1-(pyridin-2-yl)ethyl)amino)thieno[3,2-d]pyrimidine-4-carboxamide], the pIC50 in test [1] was 7.00 to 7.30; in test [2], 7.30 to 8.00; in test [3] it was more than 8.00; in test [4], 7.00 to 7.30. For the same molecule, the Ratio in test [3] amounted to 9.52.
In the case of `Cc1cc2nc(N[C@@H](C)c3ccccn3)nc(C(=O)NCCO)c2s1` [Example Z353, (S)—N-(2-Hydroxyethyl)-6-methyl-2-((1-(pyridin-2-yl)ethyl)amino)thieno[3,2-d]pyrimidine-4-carboxamide], the pIC50 was 7.00 to 7.30 in test [1], 6.30 to 7.00 in test [2], more than 8.00 in test [3] and 7.00 to 7.30 in test [4]. Also, the Ratio in test [3] is 53.12.
As to `Cc1cc2nc(N[C@@H](C)c3cccnc3)nc(C(=O)NCCO)c2s1` [Example Z368, (S)—N-(2-Hydroxyethyl)-6-methyl-2-((1-(pyridin-3-yl)ethyl)amino)thieno[3,2-d]pyrimidine-4-carboxamide], the pIC50 in test [1] is 7.00 to 7.30; in test [2] it was 6.30 to 7.00; in test [3] it was more than 8.00; in test [4], 7.00 to 7.30. The Ratio in test [3] is 74.02.
`Cc1cc2nc(N[C@@H](C)c3cncc(F)c3)nc(C(=O)NCCc3ccc(O)cc3)c2s1` [Example Z373, (S)-2-((1-(5-Fluoropyridin-3-yl)ethyl)amino)-N-(4-hydroxyphenethyl)-6-methylthieno[3,2-d]pyrimidine-4-carboxamide]: the pIC50 in test [1] is 7.00 to 7.30; in test [2] it was 6.30 to 7.00; in test [3], more than 8.00; in test [4], 7.30 to 8.00. The Ratio in test [3] amounted to 75.08.
With `COc1cccc(CNC(=O)c2nc(N[C@@H](C)c3cncc(F)c3)nc3cc(C)sc23)n1` [Example Z374, (S)-2-((1-(5-Fluoropyridin-3-yl)ethyl)amino)-N-((6-methoxypyridin-2-yl)methyl)-6-methylthieno[3,2-d]pyrimidine-4-carboxamide], the pIC50 is 7.00 to 7.30 in test [1], 6.30 to 7.00 in test [2], more than 8.00 in test [3] and 7.30 to 8.00 in test [4]. In test [3], the Ratio amounted to 19.21.
As to `Cc1cc2nc(N[C@@H](C)c3cncc(F)c3)nc(C(=O)NCC3CCOCC3)c2s1` [Example Z376, (S)-2-((1-(5-Fluoropyridin-3-yl)ethyl)amino)-6-methyl-N-((tetrahydro-2H-pyran-4-yl)methyl)thieno[3,2-d]pyrimidine-4-carboxamide], the pIC50 in test [1] is 7.00 to 7.30; in test [2] it was 6.30 to 7.00; in test [3] it was more than 8.00; in test [4], 7.00 to 7.30. In addition, the Ratio in test [3] worked out at 32.01.
On to `C[C@H](Nc1nc(C(=O)NCCc2ccncc2)c2sccc2n1)c1cncc(F)c1` [Example Z382, (S)-2-((1-(5-Fluoropyridin-3-yl)ethyl)amino)-N-(2-(pyridin-4-yl)ethyl)thieno[3,2-d]pyrimidine-4-carboxamide], for which the pIC50 in test [1] was less than 6.30; in test [2], less than 6.30; in test [3] it was 7.30 to 8.00; in test [4], less than 6.30. Further, the Ratio in test [3] turned out to be 18.44.
Take `CC(=O)N[C@H]1CCN(C(=O)c2nc(N[C@@H](C)c3cncc(F)c3)nc3cc(C)sc23)C1` [Example Z383, N—((S)-1-(2-(((S)-1-(5-Fluoropyridin-3-yl)ethyl)amino)-6-methylthieno[3,2-d]pyrimidine-4-carbonyl)pyrrolidin-3-yl)acetamide]: the pIC50 in test [1] was less than 6.30; in test [2] it was less than 6.30; in test [3], 7.30 to 8.00; in test [4] it was 7.30 to 8.00. In addition, in test [3], the Ratio came out at 55.83.
Take `C[C@H](Nc1nc(C(=O)NCCc2ccc(CO)cc2)c2sccc2n1)c1cncc(F)c1` [Example Z384, (S)-2-((1-(5-Fluoropyridin-3-yl)ethyl)amino)-N-(4-(hydroxymethyl)phenethyl)thieno[3,2-d]pyrimidine-4-carboxamide]: the pIC50 was 7.00 to 7.30 in test [1], 6.30 to 7.00 in test [2], 7.30 to 8.00 in test [3] and less than 6.30 in test [4]. The Ratio in test [3] was 13.78.
With `C[C@H](Nc1nc(C(=O)NCCC2CCNC2)c2sccc2n1)c1cncc(F)c1` (stereo partly drawn) [Example Z386, 2-(((S)-1-(5-Fluoropyridin-3-yl)ethyl)amino)-N-(2-(pyrrolidin-3-yl)ethyl)thieno[3,2-d]pyrimidine-4-carboxamide], the pIC50 is less than 6.30 in test [1], less than 6.30 in test [2], 7.30 to 8.00 in test [3] and less than 6.30 in test [4]. Also, in test [3], the Ratio is recorded as 100.94.
As to `Cc1cc2nc(N[C@@H](C)c3cncc(F)c3)nc(C(=O)NC[C@@H]3CCOC3)c2s1` [Example Z389, 2-(((S)-1-(5-Fluoropyridin-3-yl)ethyl)amino)-6-methyl-N—(((S)-tetrahydrofuran-3-yl)methyl)thieno[3,2-d]pyrimidine-4-carboxamide], the pIC50 in test [1] was 7.00 to 7.30; in test [2] it was less than 6.30; in test [3] it was more than 8.00; in test [4] it was 7.00 to 7.30. Moreover, the Ratio in test [3] came to 50.96.
On to `Cc1cc2nc(N[C@@H](C)c3cncc(F)c3)nc(C(=O)NC[C@H]3CCOC3)c2s1` [Example Z390, 2-(((S)-1-(5-fluoropyridin-3-yl)ethyl)amino)-6-methyl-N—(((R)-tetrahydrofuran-3-yl)methyl)thieno[3,2-d]pyrimidine-4-carboxamide], for which the pIC50 is 7.00 to 7.30 in test [1], 6.30 to 7.00 in test [2], more than 8.00 in test [3] and 7.00 to 7.30 in test [4]. For the same molecule, the Ratio in test [3] stood at 68.99.
For the molecule `C[C@H](O)CNC(=O)c1nc(N[C@@H](C)c2cncc(F)c2)nc2cc(C(F)(F)F)sc12` [Example Z392, 2-(((S)-1-(5-fluoropyridin-3-yl)ethyl)amino)-N—((S)-2-hydroxypropyl)-6-(trifluoromethyl)thieno[3,2-d]pyrimidine-4-carboxamide], the pIC50 was 7.00 to 7.30 in test [1], less than 6.30 in test [2], more than 8.00 in test [3] and 7.00 to 7.30 in test [4]. Further, the Ratio in test [3] was 248.84.

In general, pIC50 refers to the negative decadic logarithm of the IC50, by convention in mol/L.
